Reference: PMC6017322, “Triterpene Acids from Frankincense and Semi-Synthetic Derivatives That Inhibit 5-Lipoxygenase and Cathepsin G” (Molecules : A Journal of Synthetic Chemistry and Natural …, 2018)

Tests used:
5-LO [1] = biological target: T1, 5-LO (Homo sapiens, UniProt P09917); test: 5-LO product formation in intact human neutrophils stimulated with A23187 (cell-based); parameters: 5-LO product formation in intact human neutrophils; endogenous in cells; host or cells: freshly isolated human peripheral blood neutrophils; details: for remaining activity at 10 µM / 5-LO Activity [% Control] cell-based: residual activity at 10 µM, A23187, mean ± SEM, 3–4 experiments; for remaining activity at 10 µM: read-out: 5-LO Activity [% Control] cell-based; for IC50: human neutrophils stimulated with A23187; for inhibition of 5-LO activity in intact cells: at 10 µM
T1 sequence (P09917 1-674): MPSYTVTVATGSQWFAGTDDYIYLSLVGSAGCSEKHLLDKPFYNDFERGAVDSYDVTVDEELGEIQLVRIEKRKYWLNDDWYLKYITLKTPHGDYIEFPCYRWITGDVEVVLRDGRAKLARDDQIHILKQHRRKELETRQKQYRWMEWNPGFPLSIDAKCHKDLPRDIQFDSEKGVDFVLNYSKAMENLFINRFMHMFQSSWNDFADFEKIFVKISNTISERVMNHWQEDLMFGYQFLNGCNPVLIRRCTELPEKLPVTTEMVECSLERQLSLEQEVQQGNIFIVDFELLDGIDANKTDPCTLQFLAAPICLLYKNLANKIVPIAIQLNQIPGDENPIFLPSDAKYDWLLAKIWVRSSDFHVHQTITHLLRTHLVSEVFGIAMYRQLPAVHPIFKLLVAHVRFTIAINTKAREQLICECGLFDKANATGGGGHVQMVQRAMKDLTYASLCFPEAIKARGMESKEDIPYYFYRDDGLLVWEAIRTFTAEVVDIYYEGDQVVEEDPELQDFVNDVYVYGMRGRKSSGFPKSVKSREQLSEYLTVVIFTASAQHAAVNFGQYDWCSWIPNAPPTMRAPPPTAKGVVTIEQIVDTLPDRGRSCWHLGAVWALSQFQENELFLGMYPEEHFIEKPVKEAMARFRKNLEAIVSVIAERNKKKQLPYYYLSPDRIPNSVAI
Procedure: Neutrophils were isolated from peripheral blood (University Hospital Tübingen, Germany), collected from fasted healthy adult donors that were informed about the aim of the study and gave written consent. Leukocyte concentrates were obtained by centrifugation (4000× g, 20 min, 20 °C) of heparinized blood preparation, and neutrophils were immediately isolated as described before. Briefly, leukocyte concentrates were subjected to dextran sedimentation and centrifuged on lymphocyte separation medium (LSM 1077, PAA, Coelbe, Germany). For isolation of pelleted neutrophils, remaining erythrocytes were removed by hypotonic lysis, washed twice with ice-cold phosphate-buffered saline (PBS) and finally resuspended in PBS buffer containing 0.1% glucose and CaCl2 (1 mM) (PGC buffer).
5-LO product formation in intact human neutrophils was performed using 5 × 10^6 freshly isolated cells that were resuspended in 1 mL PGC buffer. Cells were pre-incubated with the test compounds or vehicle (0.1% DMSO) at 37 °C for 15 min prior to stimulation with 2.5 µM Ca^2+-ionophore A23187 for 10 min (37 °C). 5-LO product formation was stopped by addition of one volume of ice-cold methanol, samples were subjected to solid phase extraction after addition of 200 ng PGB1 as internal standard, and 5-LO products (LTB4, its trans-isomers and 5-HETE) were analyzed by RP-HPLC as described above.

5-LO [2] = biological target: T1, 5-LO; test: 5-LO activity in a cell-free assay (isolated human recombinant 5-LO, 20 µM arachidonic acid); type: biochemical; parameters: made in house; host or cells: Escherichia coli BL21 (pT3-5-LO plasmid); details: for inhibition of 5-LO activity, cell-free / inhibition at 10 µM: at 10 µM; for 5-LO Activity [% Control] cell-free / remaining activity at 10 µM: residual activity at 10 µM, isolated 5-LO, mean ± SEM, 3–4 experiments; for 5-LO Activity [% Control] cell-free / remaining activity at 10 µM / IC50: 20 µM arachidonic acid; for remaining activity at 10 µM: read-out: 5-LO Activity [% Control] cell-free; for IC50: isolated human 5-LO
Procedure: Human recombinant 5-LO was expressed in Eschericha coli BL21 transformed with pT3-5-LO plasmid at 30 °C overnight, as described elsewhere. Cells were lysed in lysis buffer containing triethanolamine (50 mM, pH 8.0), EDTA (5 mM), phenylmethanesulfonyl fluoride (1 mM), soybean trypsin inhibitor (60 µg/mL), dithiothreitol (2 mM), and lysozyme (1 mg/mL), and homogenized by sonification (3 × 15 s). 5-LO was then purified from 40,000× g supernatant (20 min, 4 °C) using an ATP-agarose column (Sigma-Aldrich, Deisenhofen, Germany), diluted with PBS buffer containing 1 mM EDTA, and immediately used for 5-LO activity assays.
To determine 5-LO activity, aliquots of purified 5-LO (0.5 µg 5-LO in 1 mL PBS plus 1 mM EDTA) were pre-incubated with the test compounds or vehicle (0.1% dimethyl sulfoxide, DMSO) on ice for 15 min, pre-warmed for 30 s at 37 °C in a water bath, and then stimulated with 20 µM AA and CaCl2 2 mM for 10 min at 37 °C. The reaction was stopped with one volume of ice-cold methanol and 5-LO products (including all-trans-isomers of LTB4 and 5-hydroperoxyeicosatetraenoic acid (5-HpETE), as well as its corresponding alcohol 5-hydroxyeicosatetraenoic acid (5-HETE)) were analyzed by reversed phase (RP)-HPLC (Elite LaChrom, VWR, Radnor, PA, USA) as previously described. In brief, acidified PBS and 200 ng of internal PGB1 standard were added and solid phase extraction using C18 RP-columns (100 mg, UCT, Bristol, PA, USA) was performed. After elution with methanol, samples were analyzed by RP-HPLC using a C-18 Radial-PAK column (Waters, Eschborn, Germany).

cathepsin G = biological target: T2, cathepsin G (Homo sapiens, UniProt P08311); test: Cathepsin G activity in a cell-free assay (Suc-AAPF-pNA substrate); type: biochemical; details: for IC50: read-out: Cat. G IC50 (converted); for remaining activity at 10 µM: read-out: Cat. G Activity [% Control]; for inhibition at 10 µM / inhibition of cathepsin G: at 10 µM
T2 construct: purified cathepsin G (0.2 µg) from human neutrophils; purchased Calbiochem; host or cells: human neutrophils (natural source)
T2 sequence (P08311 21-244 limits assumed): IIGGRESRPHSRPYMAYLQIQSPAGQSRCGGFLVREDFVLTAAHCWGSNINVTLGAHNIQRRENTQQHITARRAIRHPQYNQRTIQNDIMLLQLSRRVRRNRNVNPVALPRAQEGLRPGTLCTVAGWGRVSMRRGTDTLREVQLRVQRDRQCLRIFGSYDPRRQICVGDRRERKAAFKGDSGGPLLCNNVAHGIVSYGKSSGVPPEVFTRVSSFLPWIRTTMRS
Procedure: Commercially available purified cathepsin G (0.2 µg) from human neutrophils (Calbiochem, La Jolla, CA, USA) was mixed with test compounds or DMSO (vehicle control) in 200 µL 0.1 M HEPES pH 7.4, 0.5 M NaCl, and 10% DMSO in a 96-well plate (Greiner Bio-One, Frickenhausen, Germany) and pre-incubated for 20 min at 25 °C. Then, N-Suc–Ala–Ala–Pro–Phe–pNA (Suc–AAPF–pNA) (1 mM) as substrate for cathespin G was added, and the absorbance was measured at 410 nm at 25 °C using a Victor^2 plate reader (PerkinElmer, Waltham, MA, USA).

[3] = cell-free, purified cathepsin G from human neutrophils
[4] = residual activity at 10 µM, cell-free, mean ± SEM, 3–4 experiments

Row | SMILES | remaining activity at 10 µM (5-LO [1]; human neutrophils) | 5-LO Activity [% Control] cell-free (5-LO [2]) | IC50 (cathepsin G; [3]) | remaining activity at 10 µM (cathepsin G; [4]) | inhibition of 5-LO activity, cell-free (5-LO [2]) | inhibition at 10 µM (cathepsin G) | IC50 (5-LO [1]) | remaining activity at 10 µM (5-LO [2]) | also measured
1 | C=C(C)[C@@H]1CC[C@]2(C)CC[C@]3(C)[C@H](CC[C@@H]4[C@@]5(C)CC[C@@H](OC(C)=O)[C@](C)(C(=O)O)[C@@H]5CC[C@]43C)[C@@H]12 [compound 10] | 88.7 ± 6.7% | n.i. | 7.5 µM | 35.9 ± 2.5% | did not markedly inhibit 5-LO | > 50% | – | – | –
2 | CC(C)=CCC[C@H](C(=O)O)[C@@H]1CC[C@]2(C)C3=C(CC[C@@]12C)[C@@]1(C)CC[C@@H](O)C(C)(C)[C@@H]1CC3 [compound 14] | 3.1 ± 0.6% | – | – | 73 ± 7.3% | – | 27 to 44% | 1.1 µM | 66 ± 15.1% | fold more potent than AKBA 1 in intact cells (5-LO [1]; human neutrophils, IC50 comparison): about 3 fold; inhibition at 10 µM (5-LO [2]): 34%
3 | CC(C)=CCC[C@H](C(=O)O)[C@@H]1CC[C@]2(C)C3=CC[C@H]4C(C)(C)[C@H](O)CC[C@]4(C)[C@H]3CC[C@@]12C [compound 13] | 8.2 ± 2.2% | – | – | 72.3 ± 3.6% | – | 27 to 44% | 2.9 µM | 89.6 ± 8.5% | –
4 | C=C(C)[C@@H]1CC[C@]2(C)CC[C@]3(C)[C@H](CC[C@@H]4[C@@]5(C)CC[C@@H](O)[C@](C)(C(=O)O)[C@@H]5CC[C@]43C)[C@@H]12 [compound 9] | 36.2 ± 5.1% | – | – | 58.1 ± 3.6% | did not markedly inhibit 5-LO | 27 to 44% | 4 µM | 76.6 ± 12.2% | –
5 | CC(C)[C@@H]1CC[C@]2(C)[C@H](CC=C3[C@@H]4[C@@H](C)[C@H](C)CC[C@]4(C)CC[C@]32C)[C@@]1(C)CCC(=O)O [compound 6] | – | n.i. | – | 70.4 ± 3.9% | failed in this respect | – | – | – | inhibition of 5-LO activity in intact cells (5-LO [1]; human neutrophils): hardly active; 5-LO Activity [% Control] cell-based (5-LO [1]; human neutrophils): n.i.
6 | CC(C)=CCC[C@H](C(=O)O)[C@@H]1CC[C@]2(C)C3=C(CC[C@@]12C)[C@@]1(C)CC[C@H](O)C(C)(C)[C@@H]1CC3 [compound 15] | 5.2 ± 1% | – | – | 80.1 ± 6.2% | – | – | 3 µM | 64.1 ± 12.4% | inhibition at 10 µM (5-LO [2]): 36%; inhibition of cathepsin G (cathepsin G): failed to markedly inhibit cathepsin G
7 | C=C(C)[C@@H]1CC[C@]2(C)[C@H](CC=C3[C@@H]4[C@@H](C)[C@H](C)CC[C@]4(C)CC[C@]32C)[C@@]1(C)CCC(=O)O [compound 5] | 74.5 ± 3.7% | n.i. | – | 69.8 ± 8% | failed in this respect | – | – | – | inhibition of 5-LO activity in intact cells (5-LO [1]; human neutrophils): hardly active

Now from value to compound, other results behind:

Row | remaining activity at 10 µM (5-LO [1]; human neutrophils) | 5-LO Activity [% Control] cell-free (5-LO [2]) | IC50 (cathepsin G; [3]) | remaining activity at 10 µM (cathepsin G; [4]) | SMILES | inhibition of 5-LO activity, cell-free (5-LO [2]) | inhibition at 10 µM (cathepsin G) | IC50 (5-LO [1]) | remaining activity at 10 µM (5-LO [2]) | also measured
8 | 58.2 ± 0.9% | – | – | 82.7 ± 9% | C[C@H]1[C@H](C)CC[C@]2(C)CC[C@]3(C)C(=C[C@H](O)[C@@H]4[C@@]5(C)CC[C@@H](O)[C@](C)(C(=O)O)[C@@H]5CC[C@]43C)[C@H]12 [compound 19, 11β-hydroxy-β-boswellic acid] | – | – | – | 87.2 ± 1.8% | inhibition at 10 µM (5-LO [2]): < 25%
9 | 65.3 ± 8% | n.i. | 3.6 µM | 24.5 ± 1.7% | C[C@H]1[C@H](C)CC[C@]2(C)CC[C@]3(C)C(=CC[C@@H]4[C@@]5(C)CC[C@@H](OC(=O)CCCC(=O)O)[C@](C)(C(=O)O)[C@@H]5CC[C@]43C)[C@H]12 [compound 24, 3-O-Glutaroyl-β-boswellic acid] | – | – | – | – | –
10 | – | n.i. | 8.6 µM | 49.1 ± 11% | C[C@H]1[C@H](C)CC[C@]2(C)CC[C@]3(C)C(=CC(=O)[C@@H]4[C@@]5(C)CC[C@@H](OC(=O)CCCC(=O)O)[C@](C)(C(=O)O)[C@@H]5CC[C@]43C)[C@H]12 [compound 25, 3-O-Glutaroyl-11-keto-β-boswellic acid] | – | – | – | – | 5-LO Activity [% Control] cell-based (5-LO [1]; human neutrophils): n.i.
11 | 23.1 ± 9.8% | – | 0.6 µM | 14.8 ± 0.9% | CC(=O)O[C@@H]1CC[C@@]2(C)[C@@H](CC[C@]3(C)[C@@H]2C(=O)C=C2[C@@H]4[C@@H](C)[C@H](C)CC[C@]4(C)CC[C@]23C)[C@@]1(C)C(=O)O [compound 1, 3-O-acteyl-11-keto-β-BA] | – | – | 3 µM | 40.7 ± 10.8% | IC50 (5-LO [2]): 3 µM; Cat. G IC50 (cathepsin G; [3]): submicromolar
12 | 68.4 ± 2.1% | n.i. | – | – | C[C@H]1[C@H](C)CC[C@]2(C)CC[C@]3(C)C(=CC(=O)[C@@H]4[C@@]5(C)CC[C@@H](OCC(=O)O)[C@](C)(C(=O)O)[C@@H]5CC[C@]43C)[C@H]12 [compound 27, 3-O-Carboxymethyl-11-keto-β-boswellic acid] | – | – | – | – | inhibition of cathepsin G (cathepsin G): not active; Cat. G Activity [% Control] (cathepsin G; [4]): n.i.
13 | 25.7 ± 7.3% | – | 4.1 µM | 29.4 ± 3.5% | C[C@H]1[C@H](C)CC[C@]2(C)CC[C@]3(C)C(=CC(=O)[C@@H]4[C@@]5(C)CC[C@@H](O)[C@](C)(C(=O)O)[C@@H]5CC[C@]43C)[C@H]12 [compound 2, 11-keto-β-BA] | – | – | 3.5 µM | 31.1 ± 5% | IC50 (5-LO [2]): 4.6 µM
